Results reported in PubChem BioAssay (NCI).
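Protocol summary: plate cells (96-well), add compound at 5 concentrations, incubate 48 h, interpolate endpoints linearly. TGI marks complete inhibition of growth.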

How the values were obtained:
Experiment in all cases: DTP human tumour cell line panel, 48 h
786-0 renal = tested on: 786-0 renal
A498 renal = tested on: A498 renal
A549 NSCLC = tested on: A549 NSCLC
ACHN renal = tested on: ACHN renal
BT-549 breast = tested on: BT-549 breast
CAKI-1 renal = tested on: CAKI-1 renal
CCRF-CEM leukemia = tested on: CCRF-CEM leukemia
COLO 205 colon = tested on: COLO 205 colon
DU-145 prostate = tested on: DU-145 prostate
EKVX NSCLC = tested on: EKVX NSCLC
HCC-2998 colon = tested on: HCC-2998 colon
HCT-116 colon = tested on: HCT-116 colon
HCT-15 colon = tested on: HCT-15 colon
HL-60(TB) leukemia = tested on: HL-60(TB) leukemia
HOP-62 NSCLC = tested on: HOP-62 NSCLC
HS 578T breast = tested on: HS 578T breast
HT29 colon = tested on: HT29 colon
IGROV1 ovarian = tested on: IGROV1 ovarian
K-562 leukemia = tested on: K-562 leukemia
KM12 colon = tested on: KM12 colon
LOX IMVI melanoma = tested on: LOX IMVI melanoma
M14 melanoma = tested on: M14 melanoma
MALME-3M melanoma = tested on: MALME-3M melanoma
MCF7 breast = tested on: MCF7 breast
MDA-MB-435 = tested on: MDA-MB-435
MDA-N = tested on: MDA-N
MOLT-4 leukemia = tested on: MOLT-4 leukemia
NCI-H23 lung = tested on: NCI-H23 lung
NCI-H460 lung = tested on: NCI-H460 lung
NCI-H522 lung = tested on: NCI-H522 lung
NCI/ADR-RES ovarian = tested on: NCI/ADR-RES ovarian
OVCAR-3 ovarian = tested on: OVCAR-3 ovarian
OVCAR-4 ovarian = tested on: OVCAR-4 ovarian
OVCAR-5 ovarian = tested on: OVCAR-5 ovarian
OVCAR-8 ovarian = tested on: OVCAR-8 ovarian
PC-3 prostate = tested on: PC-3 prostate
RPMI-8226 leukemia = tested on: RPMI-8226 leukemia
SF-268 CNS = tested on: SF-268 CNS
SF-539 CNS = tested on: SF-539 CNS
SK-MEL-2 melanoma = tested on: SK-MEL-2 melanoma
SK-MEL-28 melanoma = tested on: SK-MEL-28 melanoma
SK-MEL-5 melanoma = tested on: SK-MEL-5 melanoma
SK-OV-3 ovarian = tested on: SK-OV-3 ovarian
SNB-19 CNS = tested on: SNB-19 CNS
SR leukemia = tested on: SR leukemia
SW-620 colon = tested on: SW-620 colon
T-47D breast = tested on: T-47D breast
U251 CNS = tested on: U251 CNS
UACC-257 melanoma = tested on: UACC-257 melanoma
UACC-62 melanoma = tested on: UACC-62 melanoma
UO-31 renal = tested on: UO-31 renal
HOP-92 NSCLC = tested on: HOP-92 NSCLC
MDA-MB-231 breast = tested on: MDA-MB-231 breast
NCI-H226 lung = tested on: NCI-H226 lung
RXF 393 renal = tested on: RXF 393 renal
SF-295 CNS = tested on: SF-295 CNS
SN12C renal = tested on: SN12C renal
TK-10 renal = tested on: TK-10 renal
SNB-75 CNS = tested on: SNB-75 CNS

Compound `CC12CC(c3ccccc3O1)C(C(=O)Nc1ccc(F)cc1)C(=O)N2` (configuration not stated) has a TGI (786-0 renal) greater than 100 µM, a TGI (A498 renal) greater than 100 µM and a TGI (A549 NSCLC) greater than 100 µM. The TGI (ACHN renal) was greater than 100 µM, the TGI (BT-549 breast) was greater than 100 µM and the TGI (CAKI-1 renal) was greater than 100 µM. It also gave a TGI (CCRF-CEM leukemia) greater than 100 µM, a TGI (COLO 205 colon) greater than 100 µM and a TGI (DU-145 prostate) greater than 100 µM. The TGI (EKVX NSCLC) was greater than 100 µM, the TGI (HCC-2998 colon) was greater than 100 µM and the TGI (HCT-116 colon) was greater than 100 µM. For the same compound, the TGI (HCT-15 colon) was greater than 100 µM, the TGI (HL-60(TB) leukemia) was greater than 100 µM and the TGI (HOP-62 NSCLC) was greater than 100 µM. It also gave a TGI (HS 578T breast) greater than 100 µM, a TGI (HT29 colon) greater than 100 µM and a TGI (IGROV1 ovarian) greater than 100 µM. It also gave a TGI (K-562 leukemia) greater than 100 µM, a TGI (KM12 colon) greater than 100 µM and a TGI (LOX IMVI melanoma) greater than 100 µM. For the same compound, the TGI (M14 melanoma) was greater than 100 µM, the TGI (MALME-3M melanoma) was greater than 100 µM and the TGI (MCF7 breast) was greater than 100 µM. It also gave a TGI (MDA-MB-435) greater than 100 µM, a TGI (MDA-N) greater than 100 µM and a TGI (MOLT-4 leukemia) of 76.5 µM. It also gave a TGI (NCI-H23 lung) greater than 100 µM, a TGI (NCI-H460 lung) greater than 100 µM and a TGI (NCI-H522 lung) greater than 100 µM. The TGI (NCI/ADR-RES ovarian) was greater than 100 µM, the TGI (OVCAR-3 ovarian) was greater than 100 µM and the TGI (OVCAR-4 ovarian) was greater than 100 µM. For the same compound, the TGI (OVCAR-5 ovarian) was greater than 100 µM, the TGI (OVCAR-8 ovarian) was greater than 100 µM and the TGI (PC-3 prostate) was greater than 100 µM. The TGI (RPMI-8226 leukemia) was greater than 100 µM, the TGI (SF-268 CNS) was greater than 100 µM and the TGI (SF-539 CNS) was greater than 100 µM. It also gave a TGI (SK-MEL-2 melanoma) greater than 100 µM, a TGI (SK-MEL-28 melanoma) greater than 100 µM and a TGI (SK-MEL-5 melanoma) greater than 100 µM. The TGI (SK-OV-3 ovarian) was greater than 100 µM, the TGI (SNB-19 CNS) was greater than 100 µM and the TGI (SR leukemia) was greater than 100 µM. The TGI (SW-620 colon) was greater than 100 µM, the TGI (T-47D breast) was greater than 100 µM and the TGI (U251 CNS) was greater than 100 µM. It also gave a TGI (UACC-257 melanoma) greater than 100 µM, a TGI (UACC-62 melanoma) greater than 100 µM and a TGI (UO-31 renal) greater than 100 µM.
Compound `CC(C)=CCN1CC(C)C(=O)Nc2cc(Cl)ccc21` (configuration not stated) has a TGI (786-0 renal) of 39.2 µM, a TGI (A498 renal) greater than 100 µM and a TGI (A549 NSCLC) greater than 100 µM. The TGI (ACHN renal) was 67.5 µM, the TGI (BT-549 breast) was 51.6 µM and the TGI (CAKI-1 renal) was 55.5 µM. For the same compound, the TGI (CCRF-CEM leukemia) was greater than 100 µM, the TGI (COLO 205 colon) was 41.9 µM and the TGI (DU-145 prostate) was greater than 100 µM. For the same compound, the TGI (EKVX NSCLC) was 94.8 µM, the TGI (HCC-2998 colon) was 97.6 µM and the TGI (HCT-116 colon) was 31.9 µM. The TGI (HCT-15 colon) was 80.6 µM, the TGI (HL-60(TB) leukemia) was greater than 100 µM and the TGI (HOP-62 NSCLC) was 81.4 µM. It also gave a TGI (HOP-92 NSCLC) of 29 µM, a TGI (HS 578T breast) greater than 100 µM and a TGI (HT29 colon) of 38.3 µM. For the same compound, the TGI (IGROV1 ovarian) was 81.9 µM, the TGI (K-562 leukemia) was greater than 100 µM and the TGI (KM12 colon) was 59.8 µM. It also gave a TGI (LOX IMVI melanoma) of 32.4 µM, a TGI (M14 melanoma) of 43.3 µM and a TGI (MALME-3M melanoma) of 62.3 µM. It also gave a TGI (MCF7 breast) of 44.6 µM, a TGI (MDA-MB-231 breast) of 50.2 µM and a TGI (MDA-MB-435) of 52.1 µM. For the same compound, the TGI (MDA-N) was 54.6 µM, the TGI (MOLT-4 leukemia) was greater than 100 µM and the TGI (NCI-H226 lung) was 40.6 µM. For the same compound, the TGI (NCI-H23 lung) was 85.5 µM, the TGI (NCI-H460 lung) was 40.7 µM and the TGI (NCI-H522 lung) was 73.3 µM. It also gave a TGI (OVCAR-3 ovarian) of 32.9 µM, a TGI (OVCAR-4 ovarian) of 83.9 µM and a TGI (OVCAR-5 ovarian) greater than 100 µM. The TGI (OVCAR-8 ovarian) was 79.4 µM, the TGI (PC-3 prostate) was 47.5 µM and the TGI (RPMI-8226 leukemia) was greater than 100 µM. It also gave a TGI (RXF 393 renal) greater than 100 µM, a TGI (SF-268 CNS) greater than 100 µM and a TGI (SF-295 CNS) greater than 100 µM. For the same compound, the TGI (SF-539 CNS) was 43 µM, the TGI (SK-MEL-2 melanoma) was 31.1 µM and the TGI (SK-MEL-28 melanoma) was greater than 100 µM. It also gave a TGI (SK-MEL-5 melanoma) of 26.5 µM, a TGI (SK-OV-3 ovarian) of 84.4 µM and a TGI (SN12C renal) of 33 µM. It also gave a TGI (SNB-19 CNS) greater than 100 µM, a TGI (SR leukemia) greater than 100 µM and a TGI (SW-620 colon) of 67.9 µM. For the same compound, the TGI (T-47D breast) was greater than 100 µM, the TGI (TK-10 renal) was 63.8 µM and the TGI (U251 CNS) was greater than 100 µM. For the same compound, the TGI (UACC-257 melanoma) was 36 µM and the TGI (UO-31 renal) was greater than 100 µM.
Work on `CCN(CC)CCOC(c1cc(OC)ccc1OC)c1ccc2n1-c1ccccc1OC2` (configuration not stated) yielded a TGI (786-0 renal) of 36.9 µM, a TGI (A498 renal) of 24.1 µM and a TGI (A549 NSCLC) of 26.9 µM. The TGI (ACHN renal) was 26.7 µM, the TGI (BT-549 breast) was 25.2 µM and the TGI (CAKI-1 renal) was 30 µM. The TGI (CCRF-CEM leukemia) was 17.2 µM, the TGI (COLO 205 colon) was 17.9 µM and the TGI (DU-145 prostate) was 60.7 µM. The TGI (EKVX NSCLC) was 33.1 µM, the TGI (HCC-2998 colon) was 20.9 µM and the TGI (HCT-116 colon) was greater than 100 µM. For the same compound, the TGI (HCT-15 colon) was 23.6 µM, the TGI (HL-60(TB) leukemia) was 30.4 µM and the TGI (HOP-62 NSCLC) was 40.2 µM. The TGI (HOP-92 NSCLC) was 9.37 µM, the TGI (HS 578T breast) was 30.9 µM and the TGI (HT29 colon) was 13.9 µM. It also gave a TGI (IGROV1 ovarian) of 19.7 µM, a TGI (K-562 leukemia) of 23.5 µM and a TGI (KM12 colon) of 34.2 µM. The TGI (LOX IMVI melanoma) was 23.6 µM, the TGI (M14 melanoma) was 33.2 µM and the TGI (MALME-3M melanoma) was 35.8 µM. The TGI (MCF7 breast) was 30.2 µM, the TGI (MDA-MB-231 breast) was 5.46 µM and the TGI (MDA-MB-435) was 22.2 µM. It also gave a TGI (MDA-N) of 26.5 µM, a TGI (NCI-H226 lung) of 14.6 µM and a TGI (NCI-H23 lung) of 25.6 µM. For the same compound, the TGI (NCI-H460 lung) was 26.2 µM, the TGI (NCI-H522 lung) was 30 µM and the TGI (NCI/ADR-RES ovarian) was 13.9 µM. For the same compound, the TGI (OVCAR-3 ovarian) was 31 µM, the TGI (OVCAR-4 ovarian) was 31.9 µM and the TGI (OVCAR-5 ovarian) was 37.4 µM. For the same compound, the TGI (OVCAR-8 ovarian) was 25.9 µM, the TGI (PC-3 prostate) was 27.4 µM and the TGI (RPMI-8226 leukemia) was 16 µM. The TGI (RXF 393 renal) was 21.4 µM, the TGI (SF-268 CNS) was 28.8 µM and the TGI (SF-295 CNS) was 23.9 µM. The TGI (SK-MEL-2 melanoma) was 26 µM, the TGI (SK-MEL-28 melanoma) was 29 µM and the TGI (SK-MEL-5 melanoma) was 22.2 µM. It also gave a TGI (SN12C renal) of 7.69 µM, a TGI (SNB-19 CNS) of 31.2 µM and a TGI (SNB-75 CNS) of 17.3 µM. For the same compound, the TGI (SW-620 colon) was 21.1 µM, the TGI (T-47D breast) was 51.3 µM and the TGI (TK-10 renal) was 25.4 µM. The TGI (U251 CNS) was 28.1 µM, the TGI (UACC-257 melanoma) was 30.6 µM and the TGI (UACC-62 melanoma) was 7.75 µM. For the same compound, the TGI (UO-31 renal) was 23 µM.
